# From publication PMC12203311, “Design, synthesis, in silico and in vitro evaluation of pyrrole–indole hybrids as dual tubulin and aromatase inhibitors with potent anticancer activities” (RSC Advances, 2025)
# Tests used:
# UACC-257 = experiment: NCI60 five-dose screen; type: cell-based; settings: Homo sapiens, UACC-257, melanoma
# SK-MEL-28 = experiment: NCI60 five-dose screen; type: cell-based; settings: Homo sapiens, SK-MEL-28, melanoma
# OVCAR-5 = experiment: NCI60 five-dose screen; type: cell-based; settings: Homo sapiens, OVCAR-5, ovarian cancer
# MDA-MB-231/ATCC = experiment: NCI60 five-dose screen; type: cell-based; settings: Homo sapiens, breast cancer
# T-47D = experiment: NCI60 five-dose screen; type: cell-based; settings: Homo sapiens, T47D, breast cancer
# TK-10 = experiment: NCI60 five-dose screen; type: cell-based; settings: Homo sapiens, TK-10, renal cancer
# NCI-H322M = experiment: NCI60 five-dose screen; type: cell-based; settings: Homo sapiens, NSC lung cancer
# RPMI-8226 = experiment: NCI60 five-dose screen; type: cell-based; settings: Homo sapiens, RPMI-8226, leukemia
# Human CYP19 (aromatase) = molecular target: T1, Human CYP19 (aromatase) (Homo sapiens, UniProt P11511); experiment: Aromatase inhibition assay (DBF fluorometric substrate); type: biochemical; settings: active defined as IC50 < 12.5 µM
# T1 construct: purchased GENTEST, Woburn, MA 456260; host or cells: baculovirus/insect cells
# T1 sequence (P11511 1-503): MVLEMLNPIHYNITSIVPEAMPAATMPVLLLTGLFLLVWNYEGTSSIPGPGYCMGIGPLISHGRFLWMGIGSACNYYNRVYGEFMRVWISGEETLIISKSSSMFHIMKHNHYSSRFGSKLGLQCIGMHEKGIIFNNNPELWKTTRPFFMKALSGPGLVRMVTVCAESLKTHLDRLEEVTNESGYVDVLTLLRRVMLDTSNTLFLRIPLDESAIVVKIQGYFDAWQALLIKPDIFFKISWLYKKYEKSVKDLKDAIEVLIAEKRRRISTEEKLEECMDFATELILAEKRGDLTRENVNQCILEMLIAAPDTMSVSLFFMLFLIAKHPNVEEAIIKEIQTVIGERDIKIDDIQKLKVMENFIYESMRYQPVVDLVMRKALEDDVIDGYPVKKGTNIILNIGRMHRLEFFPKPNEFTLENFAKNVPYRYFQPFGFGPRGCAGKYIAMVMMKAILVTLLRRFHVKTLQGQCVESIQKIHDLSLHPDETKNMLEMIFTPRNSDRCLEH
# Method: Aromatase enzyme was purchased from GENTEST, Woburn, MA01801, USA (Supersom human CYP19+oxidoreductase, baculovirus/insect cell-expressed; Product No. 456260). The aromatase inhibitory activity was performed using Human CYP19 enzymes and DBF as a fluorometric substrate as described by Stresser, et al.[41] with minor modifications. The mixture, containing 100 µL of cofactor/serial dilution buffer was pre-incubated in 37 °C for 10 min. […] After incubation at 37 °C for 30 min, the reaction was stopped by addition of 50 µL of 2.2 M NaOH. Fluorescence signal was monitored using an excitation wavelength of 490 nm and emission wavelength of 530 nm.
# HS 578T = experiment: NCI60 five-dose screen; type: cell-based; settings: Homo sapiens, breast cancer
# SN12C = experiment: NCI60 five-dose screen; type: cell-based; settings: Homo sapiens, renal cancer
# U251 = experiment: NCI60 five-dose screen; type: cell-based; settings: Homo sapiens, U-251, U251, CNS cancer
# MDA-MB-468 = experiment: NCI60 five-dose screen; type: cell-based; settings: Homo sapiens, MDA-MB-468, breast cancer
# SNB-19 = experiment: NCI60 five-dose screen; type: cell-based; settings: Homo sapiens, SNB-19, CNS cancer
# SK-OV-3 = experiment: NCI60 five-dose screen; type: cell-based; settings: Homo sapiens, SK-OV-3, ovarian cancer
# HCC-2998 = experiment: NCI60 five-dose screen; type: cell-based; settings: Homo sapiens, HCC-2998, colon cancer
# KM12 = experiment: NCI60 five-dose screen; type: cell-based; settings: Homo sapiens, KM12, colon cancer
# CCRF-CEM = experiment: NCI60 five-dose screen; type: cell-based; settings: Homo sapiens, leukemia
# HL-60 (TB) = experiment: NCI60 five-dose screen; type: cell-based; settings: Homo sapiens, leukemia
# SF-295 = experiment: NCI60 five-dose screen; type: cell-based; settings: Homo sapiens, SF-295, CNS cancer
# NCI/ADR-RES = experiment: NCI60 five-dose screen; type: cell-based, human; settings: Homo sapiens, ovarian cancer
# MALME-3M = experiment: NCI60 five-dose screen; type: cell-based; settings: Homo sapiens, melanoma
# SF-268 = experiment: NCI60 five-dose screen; type: cell-based; settings: Homo sapiens, SF-268, CNS cancer
# OVCAR-8 = experiment: NCI60 five-dose screen; type: cell-based; settings: Homo sapiens, OVCAR-8, ovarian cancer
# SW-620 = experiment: NCI60 five-dose screen; type: cell-based; settings: Homo sapiens, SW-620, colon cancer
# NCI-H522 = experiment: NCI60 five-dose screen; type: cell-based; settings: Homo sapiens, NCI-H522, NSC lung cancer
# MOLT-4 = experiment: NCI60 five-dose screen; type: cell-based; settings: Homo sapiens, MOLT-4, leukemia
# [1] = read-out: LC50 (the source's name)
structure (smiles),measurement,setting,value
"O=C(N/N=C/c1ccc([N+](=O)[O-])[nH]1)c1[nH]c2ccc(Br)cc2c1-c1ccccc1 [Derivative 3p, (E)-5-Bromo-N′-((5-nitro-1H-pyrrol-2-yl)methylene)-3-phenyl-1H-indole-2-carbohydrazide]",GI50,UACC-257,3.12 µM
same,CC50,UACC-257; [1],48.2 µM
same,GI50,SK-MEL-28,2.24 µM
same,CC50,SK-MEL-28; [1],43.5 µM
same,GI50,OVCAR-5,2.87 µM
same,CC50,OVCAR-5; [1],40.9 µM
same,GI50,MDA-MB-231/ATCC,2.14 µM
same,CC50,MDA-MB-231/ATCC; [1],46.6 µM
same,GI50,T-47D,2.4 µM
same,CC50,T-47D; [1],59.6 µM
same,GI50,TK-10,12.2 µM
same,CC50,TK-10; [1],53.8 µM
same,GI50,NCI-H322M,11 µM
same,CC50,NCI-H322M; [1],53.3 µM
same,GI50,RPMI-8226,0.468 µM
same,CC50,RPMI-8226; [1],> 100 µM
same,IC50,Human CYP19 (aromatase),1.4 ± 0.3 µM
same,GI50,HS 578T,0.27 µM
same,CC50,HS 578T; [1],94.3 µM
same,GI50,SN12C,1.24 µM
same,CC50,SN12C; [1],36.7 µM
same,GI50,U251,0.987 µM
same,CC50,U251; [1],39.2 µM
same,GI50,MDA-MB-468,0.873 µM
same,CC50,MDA-MB-468; [1],34.7 µM
same,GI50,SNB-19,3.34 µM
same,CC50,SNB-19; [1],42.4 µM
same,GI50,SK-OV-3,2.95 µM
same,CC50,SK-OV-3; [1],43 µM
same,GI50,HCC-2998,1.67 µM
same,CC50,HCC-2998; [1],19.6 µM
same,GI50,KM12,1.17 µM
same,CC50,KM12; [1],34.2 µM
same,GI50,CCRF-CEM,0.382 µM
same,CC50,CCRF-CEM; [1],> 100 µM
same,GI50,HL-60 (TB),0.374 µM
same,CC50,HL-60 (TB); [1],> 100 µM
same,GI50,SF-295,0.413 µM
same,CC50,SF-295; [1],29.9 µM
same,GI50,NCI/ADR-RES,0.285 µM
same,CC50,NCI/ADR-RES; [1],16.2 µM
same,GI50,MALME-3M,3.23 µM
same,CC50,MALME-3M; [1],56.2 µM
same,GI50,SF-268,1.47 µM
same,CC50,SF-268; [1],44.2 µM
same,GI50,OVCAR-8,1.02 µM
same,CC50,OVCAR-8; [1],39 µM
same,GI50,SW-620,0.249 µM
same,CC50,SW-620; [1],48.4 µM
same,GI50,NCI-H522,0.588 µM
same,CC50,NCI-H522; [1],19.8 µM
same,GI50,MOLT-4,0.537 µM
same,CC50,MOLT-4; [1],> 100 µM
